Results on one compound are retold here after ChEMBL document CHEMBL1126387, “Use of transferred nuclear overhauser effects to determine the conformation of 1-(3,4-dichlorophenyl)-2-aminopropane when bound to the active site of phenylethanolamine N-methyltransferace (PNMT)” (Bioorg Med Chem Lett, 1992).

For this assay, the target named is T1, Phenylethanolamine N-methyltransferase (Bos taurus, UniProt P10938).
T1 sequence (P10938 whole entry): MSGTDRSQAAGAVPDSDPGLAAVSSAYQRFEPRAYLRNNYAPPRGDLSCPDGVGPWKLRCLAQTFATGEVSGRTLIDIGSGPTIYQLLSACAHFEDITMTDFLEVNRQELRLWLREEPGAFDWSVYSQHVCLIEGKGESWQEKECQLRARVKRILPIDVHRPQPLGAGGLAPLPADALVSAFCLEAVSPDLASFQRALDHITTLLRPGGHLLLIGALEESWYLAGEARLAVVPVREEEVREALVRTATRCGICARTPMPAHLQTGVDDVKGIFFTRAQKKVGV
Description: Inhibitory activity against bovine adrenal phenylethanolamine N-methyltransferase(PNMT).

A word on the Ki: it is a measure of affinity in units of concentration, obtained from inhibition or displacement. A higher Ki goes with weaker binding. `CC(N)Cc1ccc(Cl)c(Cl)c1` (stereo unspecified) registered a Ki of 6.7 µM.
